Laboratory results as given in publication PMC7248705, “A Pharmacokinetic and Pharmacodynamic Evaluation of the Anti-Hepatocellular Carcinoma Compound 4-N-Carbobenzoxy-gemcitabine (Cbz-dFdC)” (Molecules, 2020).
Entries after “also recorded” stand apart in the source; their conditions may differ.

What was measured:
[1] = Plasma pharmacokinetics in vivo; details: SD, rat, po; plasma analyte after i.g. Cbz-dFdC 22 mg/kg, rats
Experimental: SD rats (n = 6) were intragastrically administered Cbz-dFdC (22 mg/kg) and intravenously injected with dFdC (15 mg/kg), and 150 μL blood samples were collected from the retro-orbital route in the right eye at 0, 5, 10, 20, and 30 min and at 1, 2, 4, 6, 12, 24, and 48 h, using heparinized tubes. Without delay, the blood was directly centrifuged at 8000× g at 4 °C for 5 min. Then, the supernatant plasma was collected and immediately extracted using a previously established method or was frozen at −80 °C until further analysis.

[2] = Tissue distribution (liver, kidney, intestine); assay type: in vivo, SD rats; details: rats
Experimental: In order to investigate the drug distribution in different tissues and the relationship between CES1 activity and tissue concentration, we conducted tissue distribution experiments. The SD rats were divided into six groups (n = 6 for each group). After a single intragastric administration of Cbz-dFdC (22 mg/kg) and a single injected administration of dFdC (15 mg/kg), the SD rats were sacrificed at 0.5 h, 1.5 h, and 4 h, and the liver, kidney, and intestine were collected. The liver was perfused with ice-cold normal saline and then removed, followed by ice-cold normal saline cleaning. The kidney and intestine were directly removed and then washed with ice-cold normal saline. All of the above operations were carried out on ice, and the removed tissue was stored in an ice bath. The liver, kidney, and intestine were cut and crushed, homogenized with an appropriate amount of phosphate buffer by a homogenizer, and then diluted 5 times with ice-cold PBS buffer (in an ice bath). The tissue homogenates were determined with a BCA kit for protein concentration, a CES1 kit for CES1 activity, and UFLC–MS/MS for drug tissue concentration after pretreatment; the pretreatment method was reported previously.

HepG2 cells = test: Cell uptake in HepG2 cells; assay type: cell-based, human
Experimental: The cells were cultured on a 96-well plate for 4 h for each well. Then, dimethyl sulfoxide solution containing 0.1–100 mM of Cbz-dFdC and dFdC was diluted 1000 times with the medium before administration. A total of 200 uL of medium containing Cbz-dFdC and dFdC was added per well (n = 6). The medium with drugs was discarded, and 10% CCK-8 solution was added. Then, the absorbance value was read at a wavelength of 450 nm after incubation at 37 °C, for 30 min. The drug concentration of Cbz-dFdC and dFdC in cell were determined by a previously established method.

[3] = Incubation in rat intestine homogenate and S9; assay type: in vitro ADME
Experimental: (§1) The SD rats without any treatment were sacrificed after adapting to the environment. Blank blood, the liver, the kidney, and the intestine were collected and treated as described in Section 4.4. Part of the homogenate was removed for centrifugation for 20 min at 9000× g at 4 °C, and the supernatant was obtained as tissue S9. The tissue homogenate and S9 were diluted to […] after the protein concentration was determined by the BCA kit (Abcam, Cambridge, MA, USA). Each matrix consisted of 45 uL of the matrix mixed with 5 uL of the drug dissolved in normal saline solution for about 3 min, followed by incubation at 37 °C in a water bath. Then, acetonitrile containing the internal standard was added to terminate the reaction. Human tissue S9 and human CES1 recombinase purchased from the Ruid Liver Disease Research Co., Ltd. (Shanghai, China) were incubated under the same conditions. An enzyme kinetic study was obtained from the matrix following incubation at 37 °C for 30 min with 5, 10, 20, 50, 100, or 200 μM of Cbz-dFdC. We estimated the parameters and simulated curves according to the Eadie–Hofstee method.

HepG2 tumor = test: Antitumor efficacy in vivo, HepG2 tumor-bearing mice; details: 15 days, Cbz-dFdC i.g. 22 mg/kg/day vs dFdC i.p. 15 mg/kg/day (equimolar)
Experimental: A cell suspension (2 × 10^7 cells/mL) of HepG2 with 0.2 mL was subcutaneously injected into the right armpits of the mice. After the hepatocellular carcinomas were inoculated, mice bearing an overt tumor with a size of 100–200 mm^3 were randomized into the control and treatment groups. One group was injected (i.p.) with PBS as the control group, Cbz-dFdC groups were given with 22 mg/kg/day (i.g.), respectively, and the dFdC groups were given with 15 mg/kg/day (i.p.), respectively. The tumor sizes of all mice were monitored at 0 d, 3 d, 6 d, 9 d, 12 d, and 15 d after drug treatment. The tumor size was converted into tumor volume (V), which was calculated by the formula (L × W^2 × 0.52) and presented as the mean ± standard deviation, where L and W are the length and width of the tumor, respectively. The tumors were measured with a Vernier caliper until day 15, when the PBS brine-treated mice began to die, then all […] were sacrificed via nitrogen inhalation.

[4] = Enzymatic kinetics in vitro, human liver S9; assay type: in vitro ADME
Experimental: as §1

[5] = Enzymatic kinetics in vitro, rat kidney S9; assay type: in vitro ADME; details: 37 °C, 5–200 μM Cbz-dFdC
Experimental: as §1

[6] = Enzymatic kinetics in vitro, rat liver homogenate; assay type: in vitro ADME; details: 37 °C, 30 min, 5–200 μM Cbz-dFdC
Experimental: as §1

[7] = Incubation in human plasma and S9 of the kidney and intestine; assay type: in vitro ADME
Experimental: as §1

[8] = Enzymatic kinetics in vitro, rat liver S9; assay type: in vitro ADME; details: 37 °C, 5–200 μM Cbz-dFdC
Experimental: as §1

[9] = Enzymatic kinetics in vitro, rat kidney homogenate; assay type: in vitro ADME; details: 37 °C, 30 min, 5–200 μM Cbz-dFdC
Experimental: as §1

[10] = Enzymatic kinetics in vitro, rat blood; assay type: in vitro ADME; details: 37 °C, 30 min, 5–200 μM Cbz-dFdC
Experimental: as §1

[11] = Human Liver S9, 37 °C, 30 min, 5–200 μM Cbz-dFdC
[12] = SD, read-out: Km, disappearance of Cbz-dFdC
[13] = SD, 30 min, read-out: Clint, disappearance of Cbz-dFdC
[14] = read-out: Km, appearance of dFdC
[15] = read-out: Km, disappearance of Cbz-dFdC
[16] = SD, read-out: Clint, disappearance of Cbz-dFdC

O=C(Nc1ccn([C@@H]2O[C@H](CO)[C@@H](O)C2(F)F)c(=O)n1)OCc1ccccc1 [Cbz-dFdC, 4-N-carbobenzoxy-gemcitabine]
AUC(0-inf) [1]: 2690 ± 457 ng·h/mL | Cmax [1]: 451 ± 107 ng/mL | Tmax [1]: 2 h | half-life [1]: 9.91 ± 1.87 h | Cbz-dFdC level in the intestine versus other tissues ([2]; after i.g. Cbz-dFdC 22 mg/kg, liver, kidney, intestine, especially at 0.5 h): significantly higher than that in the other tissues; also recorded: mainly distributed in the intestine | tissue penetration ([2]; drug concentration in tissue lower than plasma concentration): weak tissue penetration | intracellular concentration (cell uptake) (HepG2 cells): low | stability towards CES2 in rats ([3]; concluded from tissue-specific CES expression, rats): relatively stable in CES2 | degradation in rat intestine homogenate and S9 ([3]; rat intestine homogenate and S9, dFdC not generated): essentially non-degradable | antitumor effect (tumor size) (HepG2 tumor): slightly better than that of dFdC | Vmax, appearance of dFdC [4, 11]: 480.6 nmol/min/mg pro | Vmax, disappearance of Cbz-dFdC [4, 11]: 1491.3 nmol/min/mg pro | microsomal CLint ([4]; Human Liver S9, 37 °C, 30 min, 5–200 μM Cbz-dFdC, read-out: Clint, disappearance of Cbz-dFdC): 13800 µL/min/mg | Km at 30 min ([4]; Human Liver S9, 37 °C, 30 min, 5–200 μM Cbz-dFdC, read-out: Km, disappearance of Cbz-dFdC): 108 µM | stability in human liver S9 ([4]; human liver S9, easily hydrolyzed into dFdC): unstable | Vmax, appearance of dFdC ([5]; 30 min): 50.2 nmol/min/mg pro | Vmax, disappearance of Cbz-dFdC ([5]; 30 min): 206.5 nmol/min/mg pro | Km at 30 min [5, 12]: 269 µM | microsomal CLint [5, 13]: 770 µL/min/mg | Vmax, appearance of dFdC [6]: 86.8 nmol/min/mg pro | Vmax, disappearance of Cbz-dFdC [6]: 411.6 nmol/min/mg pro | Km [6, 14]: 96.4 µM | Km [6, 15]: 190 µM | microsomal CLint [6, 16]: 2170 µL/min/mg | stability towards CES2 in humans ([7]; concluded from tissue-specific CES expression, humans): relatively stable in CES2 | degradation in human plasma and S9 of the kidney and intestine ([7]; human plasma, kidney S9, intestine S9): did not degrade | Vmax, appearance of dFdC ([8]; 30 min): 49.5 nmol/min/mg pro | Vmax, disappearance of Cbz-dFdC ([8]; 30 min): 169.6 nmol/min/mg pro | Km at 30 min [8, 12]: 96.3 µM | microsomal CLint [8, 13]: 1760 µL/min/mg | Vmax, appearance of dFdC [9]: 44.3 nmol/min/mg pro | Vmax, disappearance of Cbz-dFdC [9]: 162.7 nmol/min/mg pro | Km [9, 14]: 48.9 µM | Km [9, 15]: 148 µM | microsomal CLint [9, 16]: 1100 µL/min/mg | Vmax, appearance of dFdC [10]: 178.5 nmol/min/mg pro | Vmax, disappearance of Cbz-dFdC [10]: 341.1 nmol/min/mg pro | Km [10, 14]: 73.2 µM | Km [10, 15]: 69.8 µM | microsomal CLint [10, 16]: 4890 µL/min/mg
